Source: patent US20260125375A1 (Pfizer Inc., priority 2022, published 2026)

How the values were obtained:
CBL-B (residues 36-427) = target: T1, CBL-B (residues 36-427) (Homo sapiens, UniProt Q13191); assay: Ligand Displacement Assay (LDA), HTRF competitive binding against BODIPY-labeled fluorescent tracer, CBL-B; details: geometric mean of the number of tests, read-out: CBL-B Ki (nM) GMean
T1 construct: Purified CBL-B (residues 36-427) and C-CBL (residues 46-435) proteins from baculovirus-infected insect cells; made in house; host or cells: baculovirus-infected insect cells
Text: (§1) Ligand Displacement Assay (LDA)
(§2) The purpose of the homogeneous time-resolved fluorescence energy transfer (HTRF) ligand displacement assay is to determine whether the compounds of the disclosure are competitive with a BODIPY-labeled compound; “fluorescent tracer” aka [6-cyclopropyl-5-(17-{5-[(3,5-dimethyl-2H-pyrrol-2-ylidene-KN)methyl]-1H-pyrrol-2-yl-κN}-15-oxo-5,8,11-trioxa-2,14-diazaheptadecan-1-yl)-N-(3-{3-[(4-methyl-4H-1,2,4-triazol-3-yl)methyl]oxetan-3-yl}phenyl)pyridine-2-carboxamidato](difluorido)boron and to assess CBL-B binding selectivity over C-CBL. The synthesis of this fluorescent tracer compound is described below.
(§3) Purified CBL-B (residues 36-427) and C-CBL (residues 46-435) proteins from baculovirus-infected insect cells were biotin labeled on their amino-terminal AviTag™ epitopes by the E. coli biotin ligase BirA to bind terbium-labeled streptavidin (SA-Tb). After optimizing the assays and determining KD values for the fluorescent tracer to CBL-B and C-CBL, compounds were tested using three-fold serial dilutions in duplicate from a top concentration of […] with a final DMSO concentration of 2%. […] The Ki (nM) values reported are the geometric means (GMean) of the number of tests conducted.

C-CBL (residues 46-435) = target: T2, C-CBL (residues 46-435) (Homo sapiens, UniProt P22681); assay: Ligand Displacement Assay (LDA), HTRF competitive binding against BODIPY-labeled fluorescent tracer, C-CBL; details: geometric mean of the number of tests, read-out: C-CBL Ki (nM) GMean
T2 construct: Purified CBL-B (residues 36-427) and C-CBL (residues 46-435) proteins from baculovirus-infected insect cells; made in house; host or cells: baculovirus-infected insect cells
T2 sequence (P22681 46-435): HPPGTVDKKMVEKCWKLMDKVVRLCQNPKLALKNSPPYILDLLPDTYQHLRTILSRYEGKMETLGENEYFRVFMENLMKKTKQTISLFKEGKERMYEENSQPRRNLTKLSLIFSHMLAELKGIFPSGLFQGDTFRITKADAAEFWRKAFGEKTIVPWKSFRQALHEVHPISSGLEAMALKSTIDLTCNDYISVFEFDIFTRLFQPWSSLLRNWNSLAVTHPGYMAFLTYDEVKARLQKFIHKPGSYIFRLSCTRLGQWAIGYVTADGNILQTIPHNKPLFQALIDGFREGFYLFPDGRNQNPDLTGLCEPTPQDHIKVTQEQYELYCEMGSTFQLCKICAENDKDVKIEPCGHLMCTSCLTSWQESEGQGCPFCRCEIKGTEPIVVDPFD
Text: as §1, §2, §3

WT CBL-B (36-427) = target: T3, WT CBL-B (36-427) (Homo sapiens, UniProt Q13191); assay: Surface Plasmon Resonance (SPR) assay, binding affinity and kinetics, CBL-B; details: SPR at 10° C., biotinylated WT CBL-B (36-427) on streptavidin chip; geometric mean; read-out: CBL-B SPR Kd (nM) GMean
T3 construct: N-terminal biotinylated WT CBL-B (36-427) and C-CBL (46-435) were captured on a streptavidin (SA) coated sensor chip
Protocol: (§4) Surface Plasmon Resonance (SPR) Assay
(§5) The purpose of the SPR assay is to evaluate the binding affinity and kinetics of the compound of disclosure binding to CBL-B and C-CBL.
(§6) The binding affinity and kinetics of compound binding to CBL-B and C-CBL were measured by Surface Plasmon Resonance (SPR) using either Biacore S200, 8K or 8K+ (Cytiva, Marlborough, MA) instruments. N-terminal biotinylated WT CBL-B (36-427) and C-CBL (46-435) were captured on a streptavidin (SA) coated sensor chip to achieve approximately 5000 to 6000 RUs of surface density. Un-functionalized SA surfaces with no immobilized protein served as reference for binding kinetic analysis. All the samples were prepared in buffer consisting of 10 mM HEPES, 150 mM NaCl, 0.05% Tween-20, 5% glycerol, […], 2% DMSO, pH 7.2. The same buffer was used as the running buffer during the experiments. Compound binding kinetics were measured in either multi-cycle or single-cycle kinetic format.
(§7) Multi-cycle kinetic analysis (MCK): A two-fold, 10-point serial dilution of test compounds was set-up in a 96-well microplate (Greiner; Cat #650101) with a top concentration of either 10 μM or 100 μM. Binding kinetics was measured at 10° C. by injecting serial dilution of compounds onto both reference and CBL immobilized channels at a flow rate of 100 μL/min and association time of 90 seconds. Compound dissociation was monitored for >400 seconds during each cycle. No additional regeneration was used. DMSO calibration curve was obtained before and after compound analysis by injecting 0-4% of DMSO in assay buffer. A suitable compound with known affinity and kinetics was tested once in every experiment as a positive control to assess activity of the captured proteins on the surface.
(§8) Single-cycle kinetic analysis (SCK): A 3-fold, 6-point serial dilution of compounds was set-up in a deep 96-well microplate (Greiner Bio; Cat #780201) with the highest concentration of 1 μM (concentration range: […]). Binding kinetics was measured at 10° C. by injecting serial dilutions of compounds in increasing order onto reference as well as CBL immobilized channels at a flow rate of 100 μL/min and association time of 120 seconds. Compound dissociation was monitored for >5400 seconds. Two buffer blanks were also run in a single-cycle kinetics format before the compound run for double referencing. No additional regeneration was used. DMSO calibration curve was obtained before and after compound analysis by injecting 0-4% of DMSO in the assay buffer. A suitable compound with known affinity and kinetics was tested once in every experiment as a positive control to assess activity of the captured proteins on the surface.

C-CBL (46-435) = target: T4, C-CBL (46-435) (Homo sapiens, UniProt P22681); assay: Surface Plasmon Resonance (SPR) assay, binding affinity and kinetics, C-CBL; details: SPR at 10° C., biotinylated C-CBL (46-435) on streptavidin chip; geometric mean; read-out: C-CBL SPR Kd (nM) GMean
T4 construct: N-terminal biotinylated WT CBL-B (36-427) and C-CBL (46-435) were captured on a streptavidin (SA) coated sensor chip
T4 sequence (P22681 46-435): T2 sequence (P22681 46-435)
Protocol: as §4, §5, §6, §7, §8

| SMILES | Ki (CBL-B (residues 36-427)) [nM] | Ki (C-CBL (residues 46-435)) [nM] | Kd (WT CBL-B (36-427)) [nM] | Kd (C-CBL (46-435)) [nM] |
| --- | --- | --- | --- | --- |
| C[C@H](c1nc(C(F)(F)F)cc2c(-c3cccc(C4(Cc5nncn5C)COC4)c3)n[nH]c12)N1CC(F)C1 (single isomer, unassigned) [Example D44] | 15.6 | 47.4 | 5.9 | 74 |
| C[C@@H]1CN([C@H](C)c2nc(C(F)(F)F)cc3c(-c4cccc(C5(Cc6nncn6C)COC5)c4)n[nH]c23)CCO1 (single isomer, unassigned) [Example D50] | 9 | 30.7 | 2.6 | 30.1 |
| CC(C)NC(C)c1nc(C(F)(F)F)cc2c(-c3cccc(C4(Cc5nncn5C)COC4)c3)n[nH]c12 (single isomer, unassigned) [Example C80, N-{(1ξ)-1-[3-(3-{3-[(4-methyl-4H-1,2,4-triazol-3-yl)methyl]oxetan-3-yl}phenyl)-5-(trifluoromethyl)-1H-pyrazolo[3,4-c]pyridin-7-yl]ethyl}propan-2-amine] | 10.1 | 71.5 | 1.7 | 68.5 |
| Cn1cnnc1CC1(c2cccc(-c3n[nH]c4c(CN5CCOCC5)nc(C(F)(F)F)cc34)c2)COC1 [Example C63, 3-(3-{3-[(4-methyl-4H-1,2,4-triazol-3-yl)methyl]oxetan-3-yl}phenyl)-7-[(morpholin-4-yl)methyl]-5-(trifluoromethyl)-1H-pyrazolo[3,4-c]pyridine] | 27 | 120 | 8 | 91.8 |
| CC(NC1CC2(COC2)C1)c1nc(C(F)(F)F)cc2c(-c3cccc([C@H](c4nncn4C)C4CCC4)c3)n[nH]c12 (single isomer, unassigned) [Example C98] | 26.9 | 109 | 11.3 | 205 |
| Cn1cnnc1CC1(c2cccc(-c3n[nH]c4c(CN5CC(F)(F)C5)nc(C(F)(F)F)cc34)c2)COC1 [Example C69, 7-[(3,3-difluoroazetidin-1-yl)methyl]-3-(3-{3-[(4-methyl-4H-1,2,4-triazol-3-yl)methyl]oxetan-3-yl}phenyl)-5-(trifluoromethyl)-1H-pyrazolo[3,4-c]pyridine] | 34.5 | 185 | 30.2 | 208 |
| C[C@H](c1nc(C(F)(F)F)cc2c(-c3cccc(C4(Cc5nncn5C)COC4)c3)n[nH]c12)N1CCNCC1 (single isomer, unassigned) [Example D54] | 20.9 | 80 | 8.2 | 61.7 |
| C[C@@H](CO)c1nc(C(F)(F)F)cc2c(-c3cccc([C@H](c4nncn4C)C4CCC4)c3)n[nH]c12 (single isomer, unassigned) [Example K4, (2ξ)-2-[3-{3-[(ξ)-cyclobutyl(4-methyl-4H-1,2,4-triazol-3-yl)methyl]phenyl}-5-(trifluoromethyl)-1H-pyrazolo[3,4-c]pyridin-7-yl]propan-1-ol] | 17.6 | 156 | 8.3 | 207 |
| CC(CN)c1nc(C(F)(F)F)cc2c(-c3cccc(C4(Cc5nncn5C)COC4)c3)n[nH]c12 (single isomer, unassigned) [Example K6, (2ξ)-2-[3-(3-{3-[(4-methyl-4H-1,2,4-triazol-3-yl)methyl]oxetan-3-yl}phenyl)-5-(trifluoromethyl)-1H-pyrazolo[3,4-c]pyridin-7-yl]propan-1-amine] | 26.5 | 78.6 | 11.3 | 125 |
| Cn1cnnc1[C@@H](c1cccc(-c2n[nH]c3c(CN[C@H]4CC[C@@H](O)C4)nc(C(F)(F)F)cc23)c1)C1CCC1 [Example D87] | 12.2 | 112 | 4.8 | 128 |
| Cn1cnnc1CC1(c2cccc(-c3n[nH]c4cnc(Cl)cc34)c2)COC1 [Example B8, 5-chloro-3-(3-{3-[(4-methyl-4H-1,2,4-triazol-3-yl)methyl]oxetan-3-yl}phenyl)-1H-pyrazolo[3,4-c]pyridine] | 28.6 | 142 | 15.9 | 180 |
| C[C@@H](c1nc(C(F)(F)F)cc2c(-c3cccc([C@H](c4nncn4C)C4CCC4)c3)n[nH]c12)N1CCNC(=O)C1 (single isomer, unassigned) [Example D88] | 3.9 | 35.2 | 5.7 | 34.1 |
| CN(C)c1nc(C(F)(F)F)cc2c(-c3cccc(C4(Cc5nncn5C)COC4)c3)n[nH]c12 [Example J9, N,N-dimethyl-3-(3-{3-[(4-methyl-4H-1,2,4-triazol-3-yl)methyl]oxetan-3-yl}phenyl)-5-(trifluoromethyl)-1H-pyrazolo[3,4-c]pyridin-7-amine] | 92.2 | 228 | 30.1 | 244 |
| Cn1cnnc1[C@@H](c1cccc(-c2n[nH]c3c(CN4CCCCC4)nc(C(F)(F)F)cc23)c1)C1CCC1 [Example D95] | 40.7 | 360 | 6.5 | 226 |
| Cn1cnnc1[C@@H](c1cccc(-c2n[nH]c3c(CN[C@H]4C[C@@H](O)C4)nc(C(F)(F)F)cc23)c1)C1CCC1 [Example C120, (1s,3s)-3-({[3-{3-[(R)-cyclobutyl(4-methyl-4H-1,2,4-triazol-3-yl)methyl]phenyl}-5-(trifluoromethyl)-1H-pyrazolo[3,4-c]pyridin-7-yl]methyl}amino)cyclobutan-1-ol] | 13.6 | 105 | 11.1 | 156 |
